ChEMBL document CHEMBL2417377, “Hit-to-lead optimization and kinase selectivity of imidazo[1,2-a]quinoxalin-4-amine derived JNK1 inhibitors” (Bioorg Med Chem Lett, 2013)

Columns and labels:
Details in all cases: PC-3
[1] = target: Serine/threonine-protein kinase WNK1 (Homo sapiens) (UniProt Q9H4A3); experiment: Inhibition of Wnk1 in human PC3 cell lysates at 10 uM using desthiobiotin-tagged ATP probe AX9989 followed by trypsinization by LC/MS analysis
[2] = target: Cyclin-dependent kinase 8 (Homo sapiens) (UniProt P49336); experiment: Inhibition of CDK8 in human PC3 cell lysates at 10 uM using desthiobiotin-tagged ATP probe AX9989 followed by trypsinization by LC/MS analysis
Chain of Cyclin-dependent kinase 8 (Homo sapiens) (P49336 whole entry): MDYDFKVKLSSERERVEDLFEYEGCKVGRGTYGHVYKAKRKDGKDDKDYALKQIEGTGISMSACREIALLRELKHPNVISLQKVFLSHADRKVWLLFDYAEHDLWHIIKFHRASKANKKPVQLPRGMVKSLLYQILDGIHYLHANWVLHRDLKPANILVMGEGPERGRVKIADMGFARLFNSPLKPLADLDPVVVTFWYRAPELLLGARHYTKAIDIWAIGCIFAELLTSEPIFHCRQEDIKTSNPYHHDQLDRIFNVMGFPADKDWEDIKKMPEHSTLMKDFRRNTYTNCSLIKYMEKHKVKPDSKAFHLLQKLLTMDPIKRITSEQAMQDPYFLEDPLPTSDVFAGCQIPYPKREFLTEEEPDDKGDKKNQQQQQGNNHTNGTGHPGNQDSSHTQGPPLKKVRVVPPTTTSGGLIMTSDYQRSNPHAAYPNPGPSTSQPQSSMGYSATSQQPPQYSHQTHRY

[3] = target: T1, Serine/threonine-protein kinase TAO2 (Homo sapiens) (UniProt Q9UL54); experiment: Inhibition of TAO2 in human PC3 cell lysates at 10 uM using desthiobiotin-tagged ATP probe AX9989 followed by trypsinization by LC/MS analysis
T1 sequence (whole entry): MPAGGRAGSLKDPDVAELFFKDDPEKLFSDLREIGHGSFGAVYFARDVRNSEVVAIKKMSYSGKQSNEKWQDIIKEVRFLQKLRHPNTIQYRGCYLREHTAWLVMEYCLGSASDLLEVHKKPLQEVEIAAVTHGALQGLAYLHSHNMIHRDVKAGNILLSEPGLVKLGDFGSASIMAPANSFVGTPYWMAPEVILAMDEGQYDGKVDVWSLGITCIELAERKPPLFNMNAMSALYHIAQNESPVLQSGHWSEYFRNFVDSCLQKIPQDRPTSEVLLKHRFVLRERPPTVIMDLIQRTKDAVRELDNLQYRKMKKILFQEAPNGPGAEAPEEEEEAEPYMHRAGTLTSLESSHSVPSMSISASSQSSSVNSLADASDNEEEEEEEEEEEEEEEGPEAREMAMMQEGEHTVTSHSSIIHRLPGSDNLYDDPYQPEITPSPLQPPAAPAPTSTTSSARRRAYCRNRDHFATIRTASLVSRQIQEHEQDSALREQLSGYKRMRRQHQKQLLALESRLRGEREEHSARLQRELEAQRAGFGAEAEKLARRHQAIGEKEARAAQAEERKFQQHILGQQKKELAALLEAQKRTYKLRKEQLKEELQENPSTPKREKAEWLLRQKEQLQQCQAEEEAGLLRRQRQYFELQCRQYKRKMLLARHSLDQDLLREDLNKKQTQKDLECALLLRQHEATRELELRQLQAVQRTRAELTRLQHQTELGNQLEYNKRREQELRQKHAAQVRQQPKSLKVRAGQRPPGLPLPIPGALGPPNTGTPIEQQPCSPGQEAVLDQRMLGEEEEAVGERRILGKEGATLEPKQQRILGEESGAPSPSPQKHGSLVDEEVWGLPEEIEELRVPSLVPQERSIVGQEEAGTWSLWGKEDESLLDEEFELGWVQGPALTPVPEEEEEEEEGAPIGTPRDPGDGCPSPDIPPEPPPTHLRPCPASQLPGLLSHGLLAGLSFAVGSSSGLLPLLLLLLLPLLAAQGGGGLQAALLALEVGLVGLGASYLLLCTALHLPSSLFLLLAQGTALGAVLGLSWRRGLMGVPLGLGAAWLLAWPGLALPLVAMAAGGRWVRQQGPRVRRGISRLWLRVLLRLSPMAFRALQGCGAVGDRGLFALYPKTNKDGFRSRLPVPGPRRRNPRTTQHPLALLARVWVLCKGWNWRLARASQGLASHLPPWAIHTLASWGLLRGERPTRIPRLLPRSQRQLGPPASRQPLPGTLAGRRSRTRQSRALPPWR

[4] = target: Serine/threonine-protein kinase PRP4 homolog (Homo sapiens) (UniProt Q13523); experiment: Inhibition of PRP4 in human PC3 cell lysates at 10 uM using desthiobiotin-tagged ATP probe AX9989 followed by trypsinization by LC/MS analysis
Chain of Serine/threonine-protein kinase PRP4 homolog (Homo sapiens) (Q13523 whole entry): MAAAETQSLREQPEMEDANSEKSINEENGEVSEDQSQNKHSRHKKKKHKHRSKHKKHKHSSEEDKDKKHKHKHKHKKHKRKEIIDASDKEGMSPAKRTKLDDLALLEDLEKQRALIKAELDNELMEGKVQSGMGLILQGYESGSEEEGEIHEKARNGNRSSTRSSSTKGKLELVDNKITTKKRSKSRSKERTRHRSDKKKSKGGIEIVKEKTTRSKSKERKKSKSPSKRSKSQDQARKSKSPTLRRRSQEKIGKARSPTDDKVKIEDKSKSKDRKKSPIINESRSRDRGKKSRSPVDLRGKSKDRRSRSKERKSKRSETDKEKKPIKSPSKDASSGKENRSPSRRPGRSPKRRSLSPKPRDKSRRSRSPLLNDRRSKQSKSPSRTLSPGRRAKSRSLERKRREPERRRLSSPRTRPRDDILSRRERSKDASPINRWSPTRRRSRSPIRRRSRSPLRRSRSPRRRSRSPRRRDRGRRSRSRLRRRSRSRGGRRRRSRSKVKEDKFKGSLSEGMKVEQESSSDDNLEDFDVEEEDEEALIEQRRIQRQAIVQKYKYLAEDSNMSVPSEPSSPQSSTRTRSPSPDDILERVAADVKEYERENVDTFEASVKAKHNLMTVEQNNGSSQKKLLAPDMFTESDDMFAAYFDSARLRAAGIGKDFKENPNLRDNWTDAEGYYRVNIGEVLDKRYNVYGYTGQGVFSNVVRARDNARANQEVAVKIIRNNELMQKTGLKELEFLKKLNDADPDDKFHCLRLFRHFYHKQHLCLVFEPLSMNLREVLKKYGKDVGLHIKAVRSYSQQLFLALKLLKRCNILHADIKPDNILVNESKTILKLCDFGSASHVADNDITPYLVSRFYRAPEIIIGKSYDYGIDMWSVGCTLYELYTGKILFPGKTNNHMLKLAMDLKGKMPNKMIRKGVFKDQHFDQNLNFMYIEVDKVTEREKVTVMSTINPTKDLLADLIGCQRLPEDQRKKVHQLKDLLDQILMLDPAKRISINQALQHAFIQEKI

[5] = target: STE20-like serine/threonine-protein kinase (Homo sapiens) (UniProt Q9H2G2); experiment: Inhibition of SLK in human PC3 cell lysates at 10 uM using desthiobiotin-tagged ATP probe AX9989 followed by trypsinization by LC/MS analysis
[6] = target: Serine/threonine-protein kinase 26 (Homo sapiens) (UniProt Q9P289); experiment: Inhibition of MST4 in human PC3 cell lysates at 10 uM using desthiobiotin-tagged ATP probe AX9989 followed by trypsinization by LC/MS analysis
Chain of Serine/threonine-protein kinase 26 (Homo sapiens) (Q9P289 2-416 limits assumed): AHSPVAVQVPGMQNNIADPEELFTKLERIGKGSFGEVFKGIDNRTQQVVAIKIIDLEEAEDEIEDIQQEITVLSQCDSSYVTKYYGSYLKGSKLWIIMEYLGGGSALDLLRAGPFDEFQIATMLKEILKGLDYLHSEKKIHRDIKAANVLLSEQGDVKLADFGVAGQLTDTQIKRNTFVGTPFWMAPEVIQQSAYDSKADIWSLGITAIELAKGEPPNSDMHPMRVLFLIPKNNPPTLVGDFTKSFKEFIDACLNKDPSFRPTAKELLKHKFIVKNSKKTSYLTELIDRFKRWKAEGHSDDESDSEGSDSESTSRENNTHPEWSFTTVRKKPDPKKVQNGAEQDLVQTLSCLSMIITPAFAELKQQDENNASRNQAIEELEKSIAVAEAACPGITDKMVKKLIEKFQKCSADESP

[7] = target: T2, Phosphatidylinositol 5-phosphate 4-kinase type-2 gamma (Homo sapiens) (UniProt Q8TBX8); experiment: Inhibition of PIP4K2C in human PC3 cell lysates at 10 uM using desthiobiotin-tagged ATP probe AX9989 followed by trypsinization by LC/MS analysis
T2 sequence (whole entry): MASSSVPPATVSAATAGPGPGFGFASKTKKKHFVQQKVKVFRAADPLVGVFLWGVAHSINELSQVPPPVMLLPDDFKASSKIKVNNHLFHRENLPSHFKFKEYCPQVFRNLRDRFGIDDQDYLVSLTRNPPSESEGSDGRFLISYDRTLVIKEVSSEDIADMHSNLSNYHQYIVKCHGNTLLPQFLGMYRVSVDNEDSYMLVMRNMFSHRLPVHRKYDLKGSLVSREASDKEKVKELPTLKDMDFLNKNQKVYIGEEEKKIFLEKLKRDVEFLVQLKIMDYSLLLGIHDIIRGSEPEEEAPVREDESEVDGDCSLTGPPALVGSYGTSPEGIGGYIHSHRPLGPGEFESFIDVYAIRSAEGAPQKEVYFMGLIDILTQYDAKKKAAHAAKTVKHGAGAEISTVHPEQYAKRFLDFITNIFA

[8] = target: Mitogen-activated protein kinase kinase kinase 11 (Homo sapiens) (UniProt Q16584); experiment: Inhibition of MLK3 in human PC3 cell lysates at 10 uM using desthiobiotin-tagged ATP probe AX9989 followed by trypsinization by LC/MS analysis
Chain of Mitogen-activated protein kinase kinase kinase 11 (Homo sapiens) (Q16584 whole entry, looked up): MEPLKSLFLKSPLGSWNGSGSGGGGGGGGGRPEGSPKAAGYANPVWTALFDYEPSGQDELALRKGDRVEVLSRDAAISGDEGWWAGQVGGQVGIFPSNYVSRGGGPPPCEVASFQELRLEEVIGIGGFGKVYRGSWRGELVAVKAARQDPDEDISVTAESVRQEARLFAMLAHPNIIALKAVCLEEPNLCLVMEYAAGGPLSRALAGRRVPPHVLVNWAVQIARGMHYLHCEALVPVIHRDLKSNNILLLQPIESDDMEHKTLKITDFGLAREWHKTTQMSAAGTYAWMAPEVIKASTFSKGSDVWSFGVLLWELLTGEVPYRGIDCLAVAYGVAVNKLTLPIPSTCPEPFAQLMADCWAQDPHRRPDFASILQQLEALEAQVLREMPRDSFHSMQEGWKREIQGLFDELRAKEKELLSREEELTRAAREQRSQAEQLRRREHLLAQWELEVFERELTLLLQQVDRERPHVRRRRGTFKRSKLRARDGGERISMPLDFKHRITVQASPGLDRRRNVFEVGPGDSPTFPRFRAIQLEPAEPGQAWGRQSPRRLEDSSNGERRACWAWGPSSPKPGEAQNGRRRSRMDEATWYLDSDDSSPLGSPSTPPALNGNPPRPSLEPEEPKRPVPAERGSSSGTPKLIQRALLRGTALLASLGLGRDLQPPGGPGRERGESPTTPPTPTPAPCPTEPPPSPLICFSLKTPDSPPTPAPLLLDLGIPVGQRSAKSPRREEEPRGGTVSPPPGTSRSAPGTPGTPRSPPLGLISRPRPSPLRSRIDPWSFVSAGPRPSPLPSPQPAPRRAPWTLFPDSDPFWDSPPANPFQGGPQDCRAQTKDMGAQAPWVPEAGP

[9] = target: Ephrin type-A receptor 7 (Homo sapiens) (UniProt Q15375); experiment: Inhibition of EphA7 in human PC3 cell lysates at 10 uM using desthiobiotin-tagged ATP probe AX9989 followed by trypsinization by LC/MS analysis
[10] = target: T3, Scaffold protein ILK (Homo sapiens) (UniProt Q13418); experiment: Inhibition of ILK in human PC3 cell lysates at 10 uM using desthiobiotin-tagged ATP probe AX9989 followed by trypsinization by LC/MS analysis
T3 sequence (whole entry): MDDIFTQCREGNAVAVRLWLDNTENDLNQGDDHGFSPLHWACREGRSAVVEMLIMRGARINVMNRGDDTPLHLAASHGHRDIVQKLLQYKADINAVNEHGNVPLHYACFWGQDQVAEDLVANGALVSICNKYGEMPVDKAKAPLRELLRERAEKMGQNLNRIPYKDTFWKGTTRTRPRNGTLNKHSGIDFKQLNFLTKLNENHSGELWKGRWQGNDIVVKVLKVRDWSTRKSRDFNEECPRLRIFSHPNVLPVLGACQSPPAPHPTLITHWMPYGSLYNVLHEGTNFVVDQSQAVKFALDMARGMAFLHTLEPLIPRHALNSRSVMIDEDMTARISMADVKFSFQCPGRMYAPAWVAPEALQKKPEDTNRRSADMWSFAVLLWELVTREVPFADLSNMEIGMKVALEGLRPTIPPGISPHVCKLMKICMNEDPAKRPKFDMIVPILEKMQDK

Chain of Serine/threonine-protein kinase WNK1 (Homo sapiens) (Q9H4A3 whole entry, looked up): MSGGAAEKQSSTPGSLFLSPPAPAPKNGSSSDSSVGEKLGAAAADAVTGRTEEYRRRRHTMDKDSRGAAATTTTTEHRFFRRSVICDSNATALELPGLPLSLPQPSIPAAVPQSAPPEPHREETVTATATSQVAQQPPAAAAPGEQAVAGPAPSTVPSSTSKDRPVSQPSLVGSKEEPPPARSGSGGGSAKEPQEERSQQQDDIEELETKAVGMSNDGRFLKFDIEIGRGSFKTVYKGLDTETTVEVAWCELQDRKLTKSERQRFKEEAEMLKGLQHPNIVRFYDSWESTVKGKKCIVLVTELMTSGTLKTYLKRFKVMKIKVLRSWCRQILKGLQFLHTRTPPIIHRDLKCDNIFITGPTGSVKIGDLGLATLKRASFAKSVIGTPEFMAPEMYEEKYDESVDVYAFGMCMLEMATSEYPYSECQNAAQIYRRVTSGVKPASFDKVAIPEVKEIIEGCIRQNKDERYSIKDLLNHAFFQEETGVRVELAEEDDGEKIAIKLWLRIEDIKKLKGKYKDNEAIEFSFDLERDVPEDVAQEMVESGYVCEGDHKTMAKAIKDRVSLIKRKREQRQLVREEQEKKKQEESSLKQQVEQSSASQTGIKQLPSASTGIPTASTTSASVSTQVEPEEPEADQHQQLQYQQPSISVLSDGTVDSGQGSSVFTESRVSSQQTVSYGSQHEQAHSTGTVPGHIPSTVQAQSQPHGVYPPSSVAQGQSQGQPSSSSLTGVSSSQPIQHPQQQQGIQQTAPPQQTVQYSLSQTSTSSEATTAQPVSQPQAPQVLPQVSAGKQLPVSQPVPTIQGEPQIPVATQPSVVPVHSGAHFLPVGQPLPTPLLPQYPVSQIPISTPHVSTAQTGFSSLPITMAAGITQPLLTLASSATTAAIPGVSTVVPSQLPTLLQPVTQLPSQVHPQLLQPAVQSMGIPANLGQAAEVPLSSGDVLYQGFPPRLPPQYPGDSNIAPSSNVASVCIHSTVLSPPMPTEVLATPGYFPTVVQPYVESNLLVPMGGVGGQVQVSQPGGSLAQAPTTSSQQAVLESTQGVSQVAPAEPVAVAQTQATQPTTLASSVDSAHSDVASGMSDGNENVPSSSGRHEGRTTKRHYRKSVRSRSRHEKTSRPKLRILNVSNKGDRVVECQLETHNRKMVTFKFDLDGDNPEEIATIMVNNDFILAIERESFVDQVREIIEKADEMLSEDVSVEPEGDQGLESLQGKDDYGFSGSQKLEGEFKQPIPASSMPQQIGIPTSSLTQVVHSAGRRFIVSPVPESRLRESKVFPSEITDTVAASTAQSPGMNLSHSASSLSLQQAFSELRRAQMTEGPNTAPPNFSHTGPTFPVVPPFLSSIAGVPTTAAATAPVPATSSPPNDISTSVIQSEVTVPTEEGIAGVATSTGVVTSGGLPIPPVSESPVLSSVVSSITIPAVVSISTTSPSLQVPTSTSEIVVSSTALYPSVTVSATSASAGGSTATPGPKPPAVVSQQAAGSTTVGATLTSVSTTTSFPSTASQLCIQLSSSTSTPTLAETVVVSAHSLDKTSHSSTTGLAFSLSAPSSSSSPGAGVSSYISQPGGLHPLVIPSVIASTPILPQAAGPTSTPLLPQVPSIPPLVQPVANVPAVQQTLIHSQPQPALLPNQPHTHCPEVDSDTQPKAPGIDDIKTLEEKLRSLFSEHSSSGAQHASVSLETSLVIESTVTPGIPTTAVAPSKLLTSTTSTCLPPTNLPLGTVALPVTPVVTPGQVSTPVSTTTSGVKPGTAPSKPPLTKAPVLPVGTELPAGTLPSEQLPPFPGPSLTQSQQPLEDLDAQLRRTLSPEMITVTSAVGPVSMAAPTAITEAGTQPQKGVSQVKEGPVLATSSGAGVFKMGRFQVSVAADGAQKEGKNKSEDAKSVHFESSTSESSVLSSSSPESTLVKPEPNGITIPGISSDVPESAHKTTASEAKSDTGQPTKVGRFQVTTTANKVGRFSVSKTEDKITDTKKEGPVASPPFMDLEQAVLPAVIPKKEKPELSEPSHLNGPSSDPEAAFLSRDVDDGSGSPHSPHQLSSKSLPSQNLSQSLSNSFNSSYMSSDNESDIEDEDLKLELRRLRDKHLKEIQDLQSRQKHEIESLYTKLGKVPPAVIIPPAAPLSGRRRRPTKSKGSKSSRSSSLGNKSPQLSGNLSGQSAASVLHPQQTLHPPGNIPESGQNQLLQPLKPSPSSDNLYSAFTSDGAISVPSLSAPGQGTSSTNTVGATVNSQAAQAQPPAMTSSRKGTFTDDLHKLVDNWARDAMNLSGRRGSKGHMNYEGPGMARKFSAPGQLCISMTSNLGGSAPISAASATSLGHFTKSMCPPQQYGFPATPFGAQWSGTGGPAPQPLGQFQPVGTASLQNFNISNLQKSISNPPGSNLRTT

SMILES | inhibition [1] [%] | inhibition [2] [%] | inhibition [3] [%] | inhibition [4] [%] | inhibition [5] [%] | inhibition [6] [%] | inhibition [7] [%] | inhibition [8] [%] | inhibition [9] [%] | inhibition [10] [%]
CCC[C@@H](NC(=O)c1ccc2nc(N[C@H]3CC[C@H](O)CC3)c3nccn3c2c1)c1ccccc1 | < 35 | < 35 | < 35 | < 35 | < 35 | < 35 | < 35 | < 35 | < 35 | < 35
NC(=O)c1ccc2nc(N[C@H]3CC[C@H](O)CC3)c3nccn3c2c1 | < 35 | < 35 | < 35 | < 35 | < 35 | < 35 | 78.1 | < 35 | < 35 | < 35
C[C@H](NC(=O)c1ccc2nc(N[C@H]3CC[C@H](O)CC3)c3nccn3c2c1)c1ccccc1 | < 35 | < 35 | < 35 | < 35 | < 35 | < 35 | < 35 | < 35 | < 35 | < 35
CC[C@@H](NC(=O)c1ccc2nc(N[C@H]3CC[C@H](O)CC3)c3nccn3c2c1)c1ccccc1 | < 35 | < 35 | < 35 | < 35 | < 35 | < 35 | < 35 | < 35 | < 35 | < 35
CC(C)(NC(=O)c1ccc2nc(N[C@H]3CC[C@H](O)CC3)c3nccn3c2c1)c1ccccc1 | < 35 | < 35 | < 35 | < 35 | < 35 | < 35 | < 35 | < 35 | < 35 | < 35
C[C@@H](NC(=O)c1ccc2nc(N[C@H]3CC[C@H](O)CC3)c3nccn3c2c1)c1ccccc1 | < 35 | < 35 | < 35 | < 35 | < 35 | < 35 | 51 | < 35 | < 35 | < 35

Results, then the compound that gave them:

inhibition [1] [%] | inhibition [2] [%] | inhibition [3] [%] | inhibition [4] [%] | inhibition [5] [%] | inhibition [6] [%] | inhibition [7] [%] | inhibition [8] [%] | inhibition [9] [%] | inhibition [10] [%] | SMILES
< 35 | < 35 | < 35 | < 35 | < 35 | < 35 | < 35 | < 35 | < 35 | < 35 | O=C(NC1(c2ccccc2)CC1)c1ccc2nc(N[C@H]3CC[C@H](O)CC3)c3nccn3c2c1
< 35 | < 35 | 67 | < 35 | < 35 | < 35 | 90.1 | < 35 | < 35 | < 35 | O=C(O)c1ccc2nc(N[C@H]3CC[C@H](O)CC3)c3nccn3c2c1
< 35 | < 35 | < 35 | < 35 | < 35 | < 35 | < 35 | < 35 | < 35 | < 35 | O=C(NC1(c2ccccc2)CCC1)c1ccc2nc(N[C@H]3CC[C@H](O)CC3)c3nccn3c2c1
< 35 | < 35 | < 35 | < 35 | < 35 | < 35 | < 35 | < 35 | < 35 | < 35 | O=C(NC1(c2ccc(F)cc2)CC1)c1ccc2nc(N[C@H]3CC[C@H](O)CC3)c3nccn3c2c1
< 35 | < 35 | < 35 | < 35 | < 35 | < 35 | 44.5 | < 35 | < 35 | < 35 | O=C(N[C@H](CO)c1ccccc1)c1ccc2nc(N[C@H]3CC[C@H](O)CC3)c3nccn3c2c1
< 35 | < 35 | < 35 | < 35 | < 35 | < 35 | < 35 | < 35 | < 35 | < 35 | O=C(NC1(Cc2ccc(F)cc2)CC1)c1ccc2nc(N[C@H]3CC[C@H](O)CC3)c3nccn3c2c1
